This is an account of results in patent US9944666B2, “Compounds that are S1P modulating agents and/or ATX modulating agents” (BIOGEN MA INC., priority 2012, dated 2018).

This assay concerns the target T1, Human ATX protein (Homo sapiens, UniProt Q13822).
T1 construct: made in house
As to the kind of experiment: ATX biochemical FRET assay with FS-3 substrate. The conditions noted are these: FS-3 2 μM, ATX 1.0 μg/mL, room temperature 2 hours, fluorescence 485/538 nm. An excerpt:
ATX (Autotaxin) is a 125 KDa glycoprotein with lysophospholipase D (LPLD) activity that generates the bioactive lipid lysophosphatidic acid (LPA) from lysophosphatidylcholine (LPC). The ATX biochemical assay utilizes a FRET (fluorescence resonance energy transfer) technology platform. The fluorescence signal of FRET substrate FS-3 is quenched due to intra-molecular FRET of a fluorophore to a non-fluorescing quencher (Ferguson, C. G., et al., Org Lett. 2006 May 11; 8(10): 2023-2026, which is incorporated by reference in its entirety). ATX catalyzes the hydrolysis of the substrate which separates the dabsyl quencher from the fluorescein reporter, which becomes fluorescent. The reaction is monitored by a SpectraMax M5 (Molecular Devices, Sunnyvale, Calif.) with at excitation wavelength 485 nm and emission wavelength […].
Fatty acid free-BSA (Sigma A8806): 10 mg/ml, in H2O, stored at 4° C.
2×ATX assay buffer: 100 mM Tris, 280 mM NaCl, 10 mM KCl, 2 mM CaCl2, 2 mM MgCl2, pH 7.4.
Human ATX protein: expressed and purified in house. Stored at −80° C.
Substrate FS-3 (Echelon, L-2000): 100 μg in 77.74 μL H2O (1 mM stock), stored at −20° C.
384-well flat bottom plates—Corning #3575.
Compound dilution—All compounds were provided at 10 mM in 100% DMSO. In the first well, 2 μL of 10 mM compound was added to 78 μL of DMSO (1:40 dilution). In subsequent wells 3-fold dilution (total 10 dilutions) were performed.
1×ATX assay buffer was made up with a final concentration of 1 mg/mL fatty acid free-BSA using 2×ATX assay buffer, 10 mg/ml fatty acid free-BSA and ddH2O.
ATX protein was diluted with 1×ATX assay buffer to a concentration of 1.32 μg/mL (1.32×). 38 μL was added per well to the assay plate. The final concentration of ATX in the reaction as 1.0 μg/mL.
2 μL per well of compounds was transferred to provide the desired concentration. The plate was centrifuged, then incubated at room temperature for 30 minutes on the shaker.
FS-3 was diluted with 1×ATX assay buffer to a concentration of FS-3 of 10 μM (5×). Then, 10 μL was added per well to the assay plate. The final concentration of FS-3 in the reaction was 2 μM. The plate was centrifuged. The plate was kept shaking at room temperature for 2 hours. Because FS-3 substrate is light sensitive, plates were kept covered and protected from light.
Fluorescence was measured using SpectraMax M5 (excitation at 485 nm/emission at 538 nm, top read).

A word on the IC50: it is the concentration that gives 50% inhibition. For `CC(c1ccc2c(C(F)(F)F)c(O[C@H]3CC[C@@H](C)CC3)ccc2c1)N1C2CCC1CC(C(=O)O)C2` (single isomer, unassigned; enantiomer 1) [Example 130, 8-(1-(6-((cis-4-Methylcyclohexyl)oxy)-5-(trifluoromethyl)naphthalen-2-yl)ethyl)-8-azabicyclo[3.2.1]octane-3-carboxylic acid, enantiomer 1], the IC50 was at most 0.25 µM. For `CC(c1ccc2c(C(F)F)c(O[C@H]3CC[C@@H](C)CC3)ccc2c1)N1C2CCC1CC(C(=O)O)C2` (single isomer, unassigned; enantiomer 1) [Example 136, 8-(1-(5-(difluoromethyl)-6-((cis-4-methylcyclohexyl)oxy)naphthalen-2-yl)ethyl)-8-azabicyclo[3.2.1]octane-3-carboxylic acid, enantiomer 1] the value was at most 0.1 µM.

Regarding `CC(c1ccc2c(C(F)F)c(O[C@H]3CC[C@@H](C)CC3)ccc2c1)N1C2CCCC1CC(C(=O)O)C2` (single isomer, unassigned; enantiomer 1) [Example 138, 9-(1-(5-(difluoromethyl)-6-((cis-4-methylcyclohexyl)oxy)naphthalen-2-yl)ethyl)-9-azabicyclo[3.3.1]nonane-3-carboxylic acid, enantiomer 1], the IC50 was at most 0.1 µM. Consider `CCC(c1ccc2c(C(F)F)c(O[C@H]3CC[C@@H](C)CC3)ccc2c1)N1C2CCC1CC(C(=O)O)C2` (single isomer, unassigned; enantiomer 1) [Example 140, 8-(1-(5-(difluoromethyl)-6-((cis-4-methylcyclohexyl)oxy)naphthalen-2-yl)propyl)-8-azabicyclo[3.2.1]octane-3-carboxylic acid, enantiomer 1], for which the half-maximal inhibitory concentration (IC50) was at most 0.1 µM.

As for `O=C(O)C1CC2CCC(C1)C2NCc1ccc2c(C(F)(F)F)c(O[C@H]3CC[C@@H](C(F)(F)F)CC3)ccc2c1` (single isomer, unassigned; enantiomer 1) [Example 162, N-(5-trifluoromethyl-6-(cis-4-trifluoromethyl-cyclohexyloxy)-naphthalen-2-ylmethyl)-8-aminobicyclo[3.2.1]octane-3-carboxylic acid, enantiomer 1], the IC50 was at most 0.25 µM. For `CC(c1ccc2c(C(F)(F)F)c(O[C@H]3CC[C@@H](C(F)(F)F)CC3)ccc2c1)N1C2CCC1CC(C(=O)O)C2` (single isomer, unassigned; enantiomer 1) [Example 173, 8-(1-(5-(trifluoromethyl)-6-((cis-4-(trifluoromethyl)cyclohexyl)oxy)naphthalen-2-yl)ethyl)-8-azabicyclo[3.2.1]octane-3-carboxylic acid, enantiomer 1] the value was at most 0.1 µM; for `CC(c1ccc2c(C(F)(F)F)c(O[C@H]3CC[C@@H](C)CC3)ccc2c1)N1C2CCC1CC(C(=O)O)C2` (single isomer, unassigned; enantiomer 2) [Example 131, 8-(1-(6-((cis-4-Methylcyclohexyl)oxy)-5-(trifluoromethyl)naphthalen-2-yl)ethyl)-8-azabicyclo[3.2.1]octane-3-carboxylic acid, enantiomer 2], at most 0.1 µM. For `CC[C@H]1CC[C@@H](Oc2ccc3cc(CN4C5CCCC4CC(C(=O)O)C5)ccc3c2)CC1` (stereo partly drawn) [Example 83, 9-((6-((cis-4-ethylcyclohexyl)oxy)naphthalen-2-yl)methyl)-9-azabicyclo[3.3.]nonane-3-carboxylic acid] the value was at most 0.5 µM.

Turning to `O=C(O)C1CC2CCCC(C1)N2Cc1ccc2c(C(F)(F)F)c(O[C@H]3CC[C@@H](C(F)(F)F)CC3)ccc2c1` (stereo partly drawn) [Example 84, 9-((5-(trifluoromethyl)-6-((cis-4-(trifluoromethyl)cyclohexyl)oxy)naphthalen-2-yl)methyl)-9-azabicyclo[3.3.1]nonane-3-carboxylic acid], the IC50 is at most 0.1 µM. For `O=C(O)C1CC(NCc2ccc3c(C(F)(F)F)c(O[C@H]4CC[C@@H](C(F)(F)F)CC4)ccc3c2)C12CCCCC2` (stereo partly drawn) [Example 85, 3-(((5-(trifluoromethyl)-6-((cis-4-(trifluoromethyl)cyclohexyl)oxy)naphthalene-2-yl)methyl)amino)spiro[3.5]nonane-1-carboxylic acid] the value was at most 0.5 µM; for `CC(c1ccc2c(C(F)(F)F)c(O[C@H]3CC[C@@H](C(F)(F)F)CC3)ccc2c1)N1C2CCCC1CC(C(=O)O)C2` (stereo partly shown) [Example 88], at most 0.1 µM; for `CC(c1ccc2c(C(F)(F)F)c(O[C@H]3CC[C@@H](C)CC3)ccc2c1)N1C2CCCC1CC(C(=O)O)C2` (stereo partly drawn) [Example 93, 9-(1-(6-((cis-4-Methylcyclohexyl)oxy)-5-(trifluoromethyl)naphthalen-2-yl)ethyl)-9-azabicyclo[3.3.1]nonane-3-carboxylic acid], at most 0.1 µM. As to `C[C@H]1CC[C@@H](Oc2ccc3cc(CN4C5CCC4CC(C(=O)O)C5)ccc3c2C(F)(F)F)CC1` (stereo partly drawn) [Example 96, 8-((6-((cis-4-Methylcyclohexyl)oxy)-5-(trifluoromethyl)naphthalen-2-yl)methyl)-8-azabicyclo[3.2.1]octane-3-carboxylic acid], the IC50 was at most 0.5 µM. With `C[C@H]1CC[C@@H](Oc2ccc3cc(CN4C5CCCC4CC(C(=O)O)C5)ccc3c2C(F)(F)F)CC1` (stereo partly drawn) [Example 97, 9-((6-((cis-4-Methylcyclohexyl)oxy)-5-(trifluoromethyl)naphthalen-2-yl)methyl)-9-azabicyclo[3.3.1]nonane-3-carboxylic acid], the 50% inhibitory concentration (IC50) is at most 0.1 µM. `CCC(c1ccc2c(C(F)F)c(O[C@H]3CC[C@@H](C)CC3)ccc2c1)N1C2CCC1CC(C(=O)O)C2` (stereo partly drawn) [Example 99, 8-(1-(5-(difluoromethyl)-6-((cis-4-methylcyclohexyl)oxy)naphthalen-2-yl)propyl)-8-azabicyclo[3.2.1]octane-3-carboxylic acid] registered an IC50 of at most 0.1 µM. For `O=C(O)C1CC2CCCC(C1)N2Cc1ccc2c(C(F)F)c(O[C@H]3CC[C@@H](C(F)(F)F)CC3)ccc2c1` (stereo partly drawn) [Example 100, 9-((5-(difluoromethyl)-6-((cis-4-(trifluoromethyl)cyclohexyl)oxy)naphthalene-2-yl)methyl)-9-azabicyclo[3.3.1]nonane-3-carboxylic acid] the value was at most 0.1 µM; for `O=C(O)C1CC2CCCC(C1)N2Cc1ccc2c(C(F)(F)F)c(O[C@H]3CC[C@@H](C(F)(F)F)CC3)ccc2n1` (stereo partly drawn) [Example 101, 9-((5-(trifluoromethyl)-6-((cis-4-(trifluoromethyl)cyclohexyl)oxy)quinolin-2-yl)methyl)-9-azabicyclo[3.3.1]nonane-3-carboxylic acid], at most 0.1 µM.

On to `CC(c1ccc2c(C(F)(F)F)c(O[C@H]3CC[C@@H](C(F)(F)F)CC3)ccc2n1)N1C2CCC1CC(C(=O)O)C2` (stereo partly drawn) [Example 102, 8-(1-(5-(trifluoromethyl)-6-((cis-4-(trifluoromethyl)cyclohexyl)oxy)quinolin-2-yl)ethyl)-8-azabicyclo[3.2.1]octane-3-carboxylic acid], for which the IC50 was at most 0.1 µM. On to `C[C@H]1CC[C@@H](Oc2ccc3cc(C(=O)N4C5CCC4CC(C(=O)O)C5)ccc3c2C(F)(F)F)CC1` (stereo partly drawn) [Example 104, 8-(6-((cis-4-Methylcyclohexyl)oxy)-5-(trifluoromethyl)-2-naphthoyl)-8-azabicyclo[3.2.1]octane-3-carboxylic acid], for which the IC50 was at most 0.1 µM. For `O=C(O)C1CC2CCCC(C1)N2C(=O)c1ccc2c(C(F)(F)F)c(O[C@H]3CC[C@@H](C(F)(F)F)CC3)ccc2c1` (stereo partly drawn) [Example 105, 9-(5-(trifluoromethyl)-6-((cis-4-(trifluoromethyl)cyclohexyl)oxy)-2-naphthoyl)-9-azabicyclo[3.3.1]nonane-3-carboxylic acid] the value was at most 0.1 µM. As for `O=C(O)C1CC2CCCC(C1)N2C(=O)Cc1ccc2c(C(F)(F)F)c(O[C@H]3CC[C@@H](C(F)(F)F)CC3)ccc2c1` (stereo partly drawn) [Example 106, 9-(2-(5-(trifluoromethyl)-6-((cis-4-(trifluoromethyl)cyclohexyl)oxy)naphthalene-2-yl)acetyl)-9-azabicyclo[3.3.1]nonane-3-carboxylic acid], the figure is at most 0.5 µM; as for `C[C@H]1CC[C@@H](Oc2ccc3cc(C(C(=O)O)N4C5CCCC4CCC5)ccc3c2C(F)(F)F)CC1` (stereo partly drawn) [Example 109, 2-(9-Azabicyclo[3.3.1]nonan-9-yl)-2-(6-((cis-4-methylcyclohexyl)oxy)-5-(trifluoromethyl)naphthalen-2-yl)acetic acid], at most 0.25 µM.
